Data: patent US20240360114A1 (SIRONAX LTD., priority 2021, published 2024)

Test system: HT-1080 cells
Assay: HT-1080 cell viability assay (ferroptosis induced by RSL3, Cell Titer-Glo)
Type: cell-based
Settings: Homo sapiens, ferroptosis inducer RSL3, 20 hours, ferroptosis inhibitory activity, Table 2
Outline: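 EC50 fitted by sigmoidal dose-response regression on luminescent viability data normalized to untreated cells. Compounds ran as a 10-point, 3-fold series from 1.1 μM alongside RSL3 for 20 hours, after overnight seeding.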

| SMILES | EC50 (HT-1080, 20 h) [nM] | EC50 [nM] |
| --- | --- | --- |
| CC1(C)CCc2cc(NC3CCC(N)CC3)ccc21 (centres unmarked) [Compound 330A, N1-(1,1-dimethyl-2,3-dihydro-1H-inden-5-yl)cyclohexane-1,4-diamine] | 0.1 to 100 | – |
| Cc1cc(C)cc(NC2CCC(N)CC2)c1 (centres unmarked) [Compound 331, N1-(3,5-dimethylphenyl)cyclohexane-1,4-diamine] | 100 to 1000 | – |
| CCC(C)(C)c1ccc(NC2CC(CN)C2)cc1 (centres unmarked) [Compound 333, N-(3-(aminomethyl)cyclobutyl)-4-(tert-pentyl)aniline] | 0.1 to 100 | – |
| CC1CCC(Nc2ccc(C(C)(C)C)cc2)CC1 (centres unmarked) [Compound 334, 4-(tert-butyl)-N-(4-methylcyclohexyl)aniline] | 100 to 1000 | – |
| CC(C)(C)c1ccc(NCCC2CCC(N)CC2)cc1 (centres unmarked) [Compound 336A, N-(2-(4-aminocyclohexyl)ethyl)-4-(tert-butyl)aniline] | – | 0.1 to 100 |
| CC1(C)CCCc2cc(NC3CCC(N)CC3)ccc21 (centres unmarked) [Compound 337A, 1-N-(5,5-dimethyl-5,6,7,8-tetrahydronaphthalen-2-yl)cyclohexane-1,4-diamine] | 0.1 to 100 | – |
| CC1(C)CCC(C)(C)c2cc(NC[C@H]3CC[C@H](N)CC3)ccc21 [Compound 338, N-(((1r,4r)-4-aminocyclohexyl)methyl)-5,5,8,8-tetramethyl-5,6,7,8-tetrahydronaphthalen-2-amine] | 0.1 to 100 | – |
| CC1(CN)CCC(Nc2ccc(C(C)(C)C)cc2)CC1 (centres unmarked) [Compound 339, N-(4-(aminomethyl)-4-methylcyclohexyl)-4-(tert-butyl)aniline] | 0.1 to 100 | – |
| CC(C)(C)c1ccc(NCC2CCC(CN)C2)cc1 (centres unmarked) [Compound 340, N-((3-(aminomethyl)cyclopentyl)methyl)-4-(tert-butyl)aniline] | 0.1 to 100 | – |
| C[C@@H](O)[C@H](N)CNC1CCC(Nc2ccc(C(C)(C)C)cc2)CC1 (stereo partly drawn) [Compound 341, (2R, 3R)-3-amino-4-((4-((4-(tert-butyl)phenyl)amino)cyclohexyl)amino) butan-2-ol] | 0.1 to 100 | – |
| CCC(C)(C)c1ccc(NC[C@H]2CC[C@H](N)CC2)cc1 [Compound 342, N-(((1r,4r)-4-aminocyclohexyl)methyl)-4-(tert-pentyl)aniline] | 0.1 to 100 | – |
| CN1CC(C)(C)c2ccc(NC3CCC(N)CC3)cc21 (centres unmarked) [Compound 343, N1-(1,3,3-trimethylindolin-6-yl)cyclohexane-1,4-diamine] | 0.1 to 100 | – |
| CC(C)(C)c1ccc(NC2CCC(CNC(=N)N)CC2)cc1 (centres unmarked) [Compound 344, 1-((4-((4-(tert-butyl)phenyl)amino)cyclohexyl)methyl)guanidine] | 0.1 to 100 | – |
| CC(C)(C)c1ccc(N[C@@H]2C[C@H](N)C[C@H](N)C2)cc1 [Compound 345, (1s,3R,5S)-N1-(4-(tert-butyl)phenyl)cyclohexane-1,3,5-triamine] | 100 to 1000 | – |
| Cn1cc(NCC2CCC(Nc3ccc(C(C)(C)C)cc3)CC2)cn1 (centres unmarked) [Compound 346, N-((4-((4-(tert-butyl)phenyl)amino)cyclohexyl)methyl)-1-methyl-1H-pyrazol-4-amine] | 0.1 to 100 | – |
| [2H]C1([2H])CC(N)CC([2H])([2H])C1([2H])Nc1ccc(C(C)(C)C)cc1 (centres unmarked) [Compound 347, N1-(4-(tert-butyl)phenyl)cyclohexane-1,2,2,6,6-d5-1,4-diamine] | 0.1 to 100 | – |
| CC(C)(C)c1ccc(NC2CCC(CNc3cn[nH]c3)CC2)cc1 (centres unmarked) [Compound 348, N-((4-((4-(tert-butyl)phenyl)amino)cyclohexyl)methyl)-1H-pyrazol-4-amine] | 0.1 to 100 | – |
| CC(C)(C)c1ccc(NC2CCC(NCC(O)CN)CC2)cc1 (centres unmarked) [Compound 349A, 1-amino-3-((4-((4-(tert-butyl)phenyl)amino)cyclohexyl)amino)propan-2-ol] | 0.1 to 100 | – |
| CC(Nc1ccc(C(C)(C)C)cc1)[C@H]1CC[C@H](N)CC1 (stereo partly drawn) [Compound 350, N—((S)-1-((1r,4S)-4-aminocyclohexyl)ethyl)-4-(tert-butyl)aniline] | 0.1 to 100 | – |
| CC(C)(C)c1ccc(N[C@@H]2C[C@H](N)C[C@H](Nc3ccc(C(C)(C)C)cc3)C2)cc1 [Compound 351, (1R, 3S,5r)-N1,N3-bis(4-(tert-butyl)phenyl)cyclohexane-1,3,5-triamine] | 0.1 to 100 | – |
| COCCc1ccc(NC2CCC(N)CC2)cc1CCOC (centres unmarked) [Compound 352, N1-(3,4-bis(2-methoxyethyl)phenyl)cyclohexane-1,4-diamine] | 1000 to 10000 | – |
| CC(C)Oc1ccc(NC[C@H]2CC[C@H](N)CC2)cc1 [Compound 353, N-(((1r,4r)-4-aminocyclohexyl)methyl)-4-isopropoxyaniline] | 0.1 to 100 | – |

| SMILES | EC50 (HT-1080, 20 h) [nM] | EC50 [nM] |
| --- | --- | --- |
| N[C@H]1CC[C@H](Nc2ccc(N3CCC(C(F)(F)F)CC3)cc2)CC1 [Compound 354, (1r,4r)-N1-(4-(4-(trifluoromethyl)piperidin-1-yl)phenyl)cyclohexane-1,4-diamine] | 0.1 to 100 | – |
| N[C@H]1CC[C@@H](Nc2ccc(N3CCC(C(F)(F)F)CC3)cc2)CC1 [Compound 355, (1s,4s)-N1-(4-(4-(trifluoromethyl)piperidin-1-yl)phenyl)cyclohexane-1,4-diamine] | 0.1 to 100 | – |
| N[C@H]1CC[C@H](CNc2ccc(N3CCC(C(F)(F)F)CC3)cc2)CC1 [Compound 356, N-(((1r,4r)-4-aminocyclohexyl)methyl)-4-(4-(trifluoromethyl)piperidin-1-yl)aniline] | 0.1 to 100 | – |
| NC1CC2(C1)CC(Nc1ccc(N3CCC(C(F)(F)F)CC3)cc1)C2 (centres unmarked) [Compound 357, N2-(4-(4-(trifluoromethyl)piperidin-1-yl)phenyl)spiro[3.3]heptane-2,6-diamine] | 0.1 to 100 | – |
| CC(C)C1CCN(c2ncc(NC3CC4(CC(N)C4)C3)cn2)CC1 (centres unmarked) [Compound 358, N2-(2-(4-isopropylpiperidin-1-yl)pyrimidin-5-yl)spiro[3.3]heptane-2,6-diamine] | 0.1 to 100 | – |
| NC1CC2(C1)CC(Nc1cnc(N3CCC(C(F)(F)F)CC3)nc1)C2 (centres unmarked) [Compound 359, N2-(2-(4-(trifluoromethyl)piperidin-1-yl)pyrimidin-5-yl)spiro[3.3]heptane-2,6-diamine] | 0.1 to 100 | – |
| CC(C)C1CCN(c2ncc(NC[C@H]3CC[C@H](N)CC3)cn2)CC1 [Compound 360, N-(((1r,4r)-4-aminocyclohexyl)methyl)-2-(4-isopropylpiperidin-1-yl)pyrimidin-5-amine] | 0.1 to 100 | – |
| CC(C)C1CCN(c2ncc(NC[C@H]3CC[C@@H](N)CC3)cn2)CC1 [Compound 361, N-(((1s,4s)-4-aminocyclohexyl)methyl)-2-(4-isopropylpiperidin-1-yl)pyrimidin-5-amine] | 0.1 to 100 | – |
| CC(C)C1CCN(c2ncc(NC3C[C@H]4CC(N)C[C@H]4C3)cn2)CC1 (stereo partly drawn) [Compound 362, (3aR, 6aS)-N2-(2-(4-isopropylpiperidin-1-yl)pyrimidin-5-yl) octahydropentalene-2,5-diamine] | 0.1 to 100 | – |
| NC1C[C@@H]2CC(Nc3ccc(N4CCC(C(F)(F)F)CC4)cc3)C[C@@H]2C1 (stereo partly drawn) [Compound 363, (3aR, 6aS)-N2-(4-(4-(trifluoromethyl)piperidin-1-yl)phenyl) octahydropentalene-2,5-diamine] | 0.1 to 100 | – |
| NC1CC2(C1)CC(Nc1ccc(N3CCC(C(F)(F)F)CC3)cc1F)C2 (centres unmarked) [Compound 364, N2-(2-fluoro-4-(4-(trifluoromethyl)piperidin-1-yl)phenyl)spiro[3.3]heptane-2,6-diamine] | 0.1 to 100 | – |
| CNC(=O)C1CCC(Nc2ccc(N3CCC(C(F)(F)F)CC3)cc2)CC1 (centres unmarked) [Compound 365, N-methyl-4-((4-(4-(trifluoromethyl)piperidin-1-yl)phenyl)amino)cyclohexane-1-carboxamide] | 0.1 to 100 | – |
| CN(C)C(=O)C1CCC(Nc2ccc(N3CCC(C(F)(F)F)CC3)cc2)CC1 (centres unmarked) [Compound 366, N,N-dimethyl-4-((4-(4-(trifluoromethyl)piperidin-1-yl)phenyl)amino)cyclohexane-1-carboxamide] | 0.1 to 100 | – |
| CC(C)C1CCN(c2ncc(NC[C@H]3CC[C@H](NC(=O)C4CNC(=O)C4)CC3)cn2)CC1 (some centres unmarked) [Compound 367, N-((1r,4r)-4-(((2-(4-isopropylpiperidin-1-yl)pyrimidin-5-yl)amino)methyl)cyclohexyl)-5-oxopy rrolidine-3-carboxamide] | 0.1 to 100 | – |
| CC(C)C1CCN(c2ncc(NC3C4CC5CC3CC(N)(C5)C4)cn2)CC1 (centres unmarked) [Compound 368, N4-(2-(4-isopropylpiperidin-1-yl)pyrimidin-5-yl)adamantane-1,4-diamine] | 0.1 to 100 | – |
| CCC(C)(C)c1ccc(NC2CC3(CC(N)C3)C2)cc1 (centres unmarked) [Compound 369, N2-(4-(tert-pentyl)phenyl)spiro[3.3]heptane-2,6-diamine] | 0.1 to 100 | – |
| CC(C)C1CCN(c2ncc(NC3C4CC5CC3CC(CN)(C5)C4)cn2)CC1 (centres unmarked) [Compound 370, N-(5-(aminomethyl)adamantan-2-yl)-2-(4-isopropylpiperidin-1-yl)pyrimidin-5-amine] | 0.1 to 100 | – |
| Cc1nc(N2CCC(C(F)(F)F)CC2)ccc1NC[C@H]1CC[C@H](N)CC1 [Compound 371, N-(((1r,4r)-4-aminocyclohexyl)methyl)-2-methyl-6-(4-(trifluoromethyl)piperidin-1-yl)pyridin-3-amine] | 0.1 to 100 | – |
| NC1C[C@@H]2CC(Nc3ccc(N4CCC(C(F)(F)F)CC4)cc3F)C[C@@H]2C1 (stereo partly drawn) [Compound 372, (3aR, 6aS)-N2-(2-fluoro-4-(4-(trifluoromethyl)piperidin-1-yl)phenyl)octahydropentalene-2,5-di amine] | 0.1 to 100 | – |
| CCNC1C[C@@H]2CC(Nc3ccc(N4CCC(C(F)(F)F)CC4)cc3F)C[C@@H]2C1 (stereo partly drawn) [Compound 373, (3aR,6aS)-N2-ethyl-N5-(2-fluoro-4-(4-(trifluoromethyl)piperidin-1-yl)phenyl)octahydropentalene-2,5-diamine] | 0.1 to 100 | – |
| O=C1NCC(C(=O)NC2CC3(C2)CC(Nc2ccc(N4CCC(C(F)(F)F)CC4)cc2)C3)N1 (centres unmarked) [Compound 374, 2-oxo-N-(6-((4-(4-(trifluoromethyl)piperidin-1-yl)phenyl)amino)spiro[3.3]heptan-2-yl)imidazo lidine-4-carboxamide] | 0.1 to 100 | – |
| O=C1CC(C(=O)NC2CC3(C2)CC(Nc2ccc(N4CCC(C(F)(F)F)CC4)cc2)C3)CN1 (centres unmarked) [Compound 375] | 0.1 to 100 | – |
